Key:
[1] = test system: hTERT-transduced human corneal stromal cells (not transduced with the HSV-TK gene); test: Susceptibility to ganciclovir treatment, cell count with trypan-blue staining; assay type: cell-based; conditions: any treatment concentration (up to 10^-4 M), 12th day after ganciclovir treatment, n=3
Protocol: (§1) The susceptibilities of the transduced human corneal stromal cells to ganciclovir treatment were investigated by the following process. The hTERT-transduced human corneal stromal cells of Comparative Example and the hTERT+TK-transduced human corneal stromal cells of Example 1 were separately seeded at 2×10^4 cells/cm^2 in a 24-well plate, and cultured under conditions of 37° C. and 5% CO2 (medium: DMEM, 10% FBS, 100 U/ml penicillin and 100 μg/ml streptomycin). On the 1st day after seeding, ganciclovir treatment was started (treatment concentration: 0, 10^−7, […], […], and 10^−4 M; time course: day 0, 2, 4, 6, 8, 10, and 12). The susceptibility of each type of the transduced human corneal stromal cells to ganciclovir treatment was determined using 3 wells for each concentration at each time point (n=3). At each time point, the number of the cells was counted with trypan-blue staining. For counting with trypan-blue staining, an erythrocytometer (hematometer; product name: Burker-Turk deep 1/10 mm; product number: Tokyo No. 0880 (ERMA, Inc.)) was used. Immediately after staining, each sample was placed in a counting chamber of the erythrocytometer. Immediately after that, the number of the cells was counted. The average number of the cells on the zero-day of ganciclovir treatment at each treatment concentration was used as a baseline (100%) for the results of the cell number at each time point.

[2] = test system: hTERT+TK-transduced human corneal stromal cells; test: as above; assay type: cell-based; conditions: n=3
Protocol: as §1

For `Nc1nc(O)c2ncn(COC(CO)CO)c2n1` [ganciclovir], the “number of the cells after ganciclovir treatment” value (“number of the cells” below) [1] was “did not decrease”, the “number of the cells” value ([2]; 10^-4 M treatment group, 6th day after ganciclovir treatment) was “all the cells died” and the “number of the cells” value ([2]; 10^-7, 10^-6 and 10^-5 M groups, from the 8th day after ganciclovir treatment) was “concentration-dependent decrease in the number of the cells”.

From patent publication US20120149598A1, “FEEDER CELLS FOR TARGET CELL INDUCTION” (priority 2009, published 2012)
